Assay results published in US11407715B2, “Substituted indoline derivatives as dengue viral replication inhibitors” (JANSSEN PHARMACEUTICALS, INC., priority 2017, dated 2022).
pEC50: −log10 of the molar value. Where two headings read alike, the source gives them in different places.

Assays:
DENV-4 strain H241 = experiment: Tetravalent RT-qPCR assay, serotype 4; format: cell-based, Dengue virus; settings: RT-qPCR serotype 4 H241, Vero cells
Method: (§1) The antiviral activity of the compounds of the invention was tested against DENV-1 strain TC974#666 (NCPV), DENV-2 strain 16681, DENV-3 strain H87 (NCPV) and DENV-4 strain H241 (NCPV) in a RT-qPCR assay. Therefore, Vero cells were infected with either DENV-1, or -2, or -3, or -4 in the presence or absence of test compounds. At day 3 post-infection, the cells were lysed and cell lysates were used to prepare cDNA of both a viral target (the 3′UTR of DENV; Table 2) and a cellular reference gene (β-actin, Table 2). Subsequently, a duplex real time PCR was performed on a Lightcycler480 instrument. The generated Cp value is inversely proportional to the amount of RNA expression of these targets. Inhibition of DENV replication by a test compound results in a shift of Cp's for the 3′UTR gene. On the other hand, if a test compound is toxic to the cells, a similar effect on β-actin expression will be observed. The comparative ΔΔCp method is used to calculate ECs50, which is based on the relative gene expression of the target gene (3′UTR) normalized with the cellular housekeeping gene (β-actin). In addition, CC50 values are determined based on the Cp values acquired for the housekeeping gene β-actin.
(§2) The culture medium consisted of minimal essential medium supplemented with 2% of heat-inactivated fetal calf serum, 0.04% gentamycin (50 mg/mL) and 2 mM of L-glutamine. Vero cells, obtained from ECACC, were suspended in culture medium and 75 μL/well was added in 96-well plates (10000 cells/well), which already contain the antiviral compounds. […] In addition, each plate contains wells which are assigned as virus controls (containing cells and virus in the absence of compound) and cell controls (containing cells in the absence of virus and compound). Once the cells were added in the plates, the plates were incubated in a fully humidified incubator (37° C., 5% CO2) until the next day. Dengue viruses serotype-1, 2, 3 and 4 were diluted in order to obtain a Cp of ˜22-24 in the assay. Therefore, 25 μL of virus suspension was added to all the wells containing test compound and to the wells assigned as virus control. In parallel, 25 μL of culture medium was added to the cell controls. Next, the plates were incubated for 3 days in a fully humidified incubator (37° C., 5% CO2). After 3 days, the supernatant was removed from the wells and the cells were washed twice with ice-cold PBS (˜100 μL). The cell pellets within the 96-well plates were stored at −80° C. for at least 1 day. Next, RNA was extracted using the Cells-to-CT™ lysis kit, according to the manufacturer's guideline (Life Technologies). The cell lysates can be stored at −80C or immediately used in the reverse transcription step.
(§3) In preparation of the reverse transcription step, mix A (table 3A) was prepared and 7.57 μL/well was dispensed in a 96-well plate. After addition of 5 μL of the cell lysates, a five minute denaturation step at 75° C. was performed (table 3B). Afterwards, 7.43 μL of mix B was added (table 3C) and the reverse transcription step was initiated (table 3D) to generate cDNA.
(§4) Finally, a RT-qPCR mix was prepared, mix C (table 4A), and 22.02 μL/well was dispensed in 96-well LightCycler qPCR plates to which 3 μL of cDNA was added and the qPCR was performed according to the conditions in table 4B on a LightCycler 480.
(§5) Using the LightCycler software and an in-house LIMS system, dose response curves for each compound were calculated and the half maximal effective concentration (EC50) and the half maximal cytotoxic concentration (CC50) were determined (Tables 5-8).

in vitro [1] = settings: African green monkey
DENV-2 16681 strain = experiment: microbe, parasite or virus in culture; format: cell-based, Dengue virus; settings: for pEC50: DENV-2 16681 eGFP, Vero cells, MOI 0.5, 3 days; for SI: SI=CC50/EC50, DENV-2 antiviral assay
DENV-1 strain TC974#666 = experiment: Tetravalent RT-qPCR assay, serotype 1; format: cell-based, Dengue virus; settings: RT-qPCR serotype 1 TC974#666, Vero cells
Method: as §1, §2, §3, §4, §5

DENV-2 strain 16681 = experiment: Tetravalent RT-qPCR assay, serotype 2; format: cell-based, Dengue virus; settings: RT-qPCR serotype 2 16681, Vero cells
Method: as §1, §2, §3, §4, §5

DENV-3 strain H87 = experiment: Tetravalent RT-qPCR assay, serotype 3; format: cell-based, Dengue virus; settings: RT-qPCR serotype 3 H87, Vero cells
Method: as §1, §2, §3, §4, §5

in vitro [2] = settings: African green monkey; remark: listed apart in the source
Vero cells [3] = settings: African green monkey
Vero cells [4] = settings: African green monkey, 3 days

SMILES	pEC50 (DENV-4 strain H241)	CC50 (in vitro [1])	pEC50 (DENV-2 16681 strain)	SI (DENV-2 16681 strain)	pEC50 (DENV-1 strain TC974#666)	pEC50 (DENV-2 strain 16681)	pEC50 (DENV-3 strain H87)	pEC50 (DENV-4 strain H241; Dengue virus, DENV4, Vero)	CC50 at 3 days (in vitro [2])	pEC50 (DENV-1 strain TC974#666; Dengue virus, DENV1, Vero)	pEC50 (DENV-2 strain 16681; Dengue virus, DENV2, Vero)	pEC50 (DENV-3 strain H87; Dengue virus, DENV3, Vero)	CC50 (Vero cells [3])	CC50 (Vero cells [4])
COc1cc(NC(C(=O)N2CCc3ccc(OC(F)(F)F)cc32)c2ccc(Cl)cc2)cc(OCC2(F)CC2C(=O)O)c1 (centres unmarked) [Compound 29BB]	8.55	12 µM	10.16	124722	10.32	10.60	9.41	–	–	–	–	–	–	–
COc1cc(NC(C(=O)N2CCc3ccc(OC(F)(F)F)cc32)c2ccc(Cl)cc2)cc(OCCC(C)(C)C(=O)O)c1 (single isomer, unassigned) [Compound 2A]	–	13 µM	9.42	34500	–	–	–	7.57	> 2500 nM	9.24	9.32	8.21	–	–
COc1cc(NC(C(=O)N2CCc3ccc(OC(F)(F)F)cc32)c2ccc(Cl)cc2)cc(OCC2(CC(=O)O)CC2)c1 (single isomer, unassigned) [Compound 5A]	–	12 µM	9.29	26300	–	–	–	7.24	–	9.24	9.38	8.09	–	–
COc1cc(CCCCC(=O)O)cc(NC(C(=O)N2CCc3ccc(OC(F)(F)F)cc32)c2ccc(Cl)cc2)c1 (single isomer, unassigned) [Compound 14A]	–	16 µM	9.96	151558	–	–	–	7.82	–	9.59	9.70	8.55	–	–
COc1cc(NC(C(=O)N2CCc3ccc(OC(F)(F)F)cc32)c2ccc(Cl)cc2)cc(OCCC(C)C(=O)O)c1 (single isomer, unassigned) [Compound 1C]	–	12 µM	10.03	131193	–	–	–	7.80	–	9.64	9.74	8.62	–	–
COc1cc(NC(C(=O)N2CCc3ccc(OC(F)(F)F)cc32)c2ccc(Cl)cc2)cc(OCC2(F)CC2C(=O)O)c1 (centres unmarked) [Compound 28BB]	7.74	–	9.70	70600	9.96	10.00	8.92	–	–	–	–	–	12 µM	> 1000 nM
COc1cc(NC(C(=O)N2CCc3cc(F)c(OC(F)(F)F)cc32)c2ccc(Cl)cc2)cc(OCC2CC(C(=O)O)C2)c1 (centres unmarked) [Compound 30A]	–	13 µM	9.62	47400	10.03	–	–	7.74	–	–	10.12	8.72	–	–
COc1cc(NC(C(=O)N2CCc3ccc(OC(F)(F)F)cc32)c2ccc(Cl)cc2)cc(OCC(C)CC(=O)O)c1 (single isomer, unassigned) [Compound 4C]	–	–	9.96	121878	10.18	10.22	9.11	7.82	–	–	–	–	13 µM	> 1000 nM
COc1cc(NC(C(=O)N2CCc3ccc(OC(F)(F)F)cc32)c2ccc(Cl)cc2)cc(OCCCCC(=O)O)c1 (single isomer, unassigned) [Compound 13B]	–	–	9.89	88200	–	–	–	7.82	> 2500 nM	9.72	9.92	8.72	12 µM	–
COc1cc(NC(C(=O)N2CCc3cc(OC)c(C(F)(F)F)cc32)c2ccc(Cl)cc2)cc(OC2CC(C(=O)O)C2)c1 (centres unmarked) [Compound 23B]	–	–	10.21	>88755	–	–	–	8.57	–	10.04	10.47	9.48	12 µM	–
COc1cc(NC(C(=O)N2CCc3cc(OC)c(Cl)cc32)c2ccc(Cl)cc2)cc(OC2CC(C(=O)O)C2)c1 (single isomer, unassigned) [Compound 32B]	–	–	10.09	>230623	–	–	–	8.00	–	9.96	10.48	9.24	14 µM	–
COc1cc(NC2CC(C(=O)O)C2)cc(NC(C(=O)N2CCc3ccc(OC(F)(F)F)cc32)c2ccc(Cl)cc2)c1 (single isomer, unassigned) [Compound 33C]	6.47	–	8.49	5930	9.01	–	7.96	–	–	–	9.00	–	19 µM	–
COc1cc(NC(C(=O)N2CCc3cc(OC)c(C(F)(F)F)cc32)c2ccc(Cl)cc2)cc(OCC2CC(C(=O)O)C2)c1 (centres unmarked) [Compound 24B]	–	–	9.47	43100	–	–	7.85	7.18	–	8.66	9.59	–	12 µM	–
COc1cc(NC(C(=O)N2CCc3ccc(OC(F)(F)F)cc32)c2ccc(Cl)cc2)cc(OCCC(=O)O)c1 (single isomer, unassigned) [Compound 12B]	–	–	9.16	21500	–	–	–	7.41	–	9.33	9.28	8.33	14 µM	–
COc1cc(NC(C(=O)N2CCc3cc(OC)c(C(F)(F)F)cc32)c2ccc(Cl)cc2)cc(OCCC(C)C(=O)O)c1 (single isomer, unassigned) [Compound 20D]	7.26	–	9.64	53400	9.05	9.72	8.05	–	–	–	–	–	13 µM	> 1000 nM
COc1cc(NC(C(=O)N2CCc3ccc(OC(F)(F)F)cc32)c2ccc(Cl)cc2OC)cc(OCCC(C)C(=O)O)c1 (single isomer, unassigned) [Compound 17D]	7.82	–	9.92	>9720	9.68	10.00	8.57	–	–	–	–	–	14 µM	–
COc1cc(NC(C(=O)N2CCc3cc(OC)c(C(F)(F)F)cc32)c2ccc(Cl)cc2)cc(OCCC(C)C(=O)O)c1 (single isomer, unassigned) [Compound 20C]	7.70	–	9.77	59500	9.52	10.15	8.47	–	> 1000 nM	–	–	–	12 µM	> 1000 nM
COc1cc(NC2CC(C(=O)O)C2)cc(NC(C(=O)N2CCc3ccc(OC(F)(F)F)cc32)c2ccc(Cl)cc2)c1 (single isomer, unassigned) [Compound 33D]	7.66	–	9.28	39000	9.32	9.18	8.64	–	–	–	–	–	18 µM	–
COc1cc(NC(C(=O)N2CCc3cc(OC)c(C(F)(F)F)cc32)c2ccc(Cl)cc2)cc(OCC2CC2C(=O)O)c1 (centres unmarked) [Compound 22AB]	8.48	–	10.47	>196427	10.04	10.54	9.31	–	–	–	–	–	12 µM	–
